# Results: publication PMC10374545, “A small molecule inhibitor of PTP1B and PTPN2 enhances T cell anti-tumor immunity” (Nature Communications, 2023)
# “And” between values parts separate entries of the source, which are not always exact repeats. Identical values can stand only once.
# Tests used:
# [1] = system: AT3 mammary tumors; assay: AT3 tumor growth in Lck-Cre;Ptpn2fl/fl mice; type: in vivo, mouse; parameters: key to Tumour growth: tumour size in mm^2 (two-dimensional caliper measurement); Tumour weights / Tumour weights (mean): unit not given here; conditions: for Tumour size (mean): CMP-182 in LCK-CRE-PTPN2 mice (Group C), in mm2; for Tumour growth: individual mice (Figure 8D)
# Protocol: Male or female mice were injected subcutaneously with 5 × 10^5 MC38 tumor cells resuspended in 100 μl D-PBS into the flank. Alternatively, female mice were injected orthotopically with 5 × 10^5 AT3 or AT3-OVA or PTPN2-deleted AT3 or AT3-OVA tumor cells resuspended in 20 μl D-PBS into the fourth mammary fat pad. Tumor sizes were measured in two dimensions (mm^2) using electronic callipers two to three times per week as soon as tumors were palpable (20–25 mm^2).
# [2] = system: AT3 mammary tumors; assay: Tumor-infiltrating lymphocytes in AT3 tumors, Compound 182 with α-PD-1; type: in vivo, mouse; parameters: CD4 EM / CD8 EM / IFNg+ TNF+ / GRZMB / MDSCs / NK cells / Tregs: unit not given here
# Protocol: In addition, mice received four intraperitoneal injections of α-PD-1 (200 μg in 200 μl D-PBS; clone RMP1-14), or rat IgG2a isotype control (100 μg in 200 μl D-PBS, Bio X Cell) twice per week.
# Tumor-bearing mice were sacrificed and tumors were excised and digested at 37 °C for 30 min using a cocktail of 1 mg/ml collagenase type IV (Worthington Biochemicals) and 0.02 mg/ml DNase I (Sigma-Aldrich) in DMEM supplemented with 2% (v/v) FBS. Cells were passed through a 70 μm cell strainer (BD Biosciences) twice and processed for flow cytometry. For assessing T cell activation, cells were surface stained with fluorophore-conjugated antibodies to CD62L, CD44, PD-1, and TIM-3. For the assessment of NK cells, B cells, myeloid-derived suppressor cells (MDSCs), dendritic cells (DCs), and tumor-associated macrophages, cells were surface stained with fluorophore-conjugated antibodies to NK1.1, TCRβ, CD19, CD11b, CD11c, F4/80, Ly6C and Ly6G. For the detection of intracellular cytokines TNF and IFNγ, T cells were stimulated with PMA (20 ng/ml; Sigma-Aldrich) and ionomycin (1 μg/ml; Sigma-Aldrich) in the presence of GolgiPlug™ and GolgiStop™ (BD Biosciences) for 4 h at 37 °C in complete T cell medium. For the intracellular detection of granzyme B, cells were processed untreated without the addition of BD GolgiPlug™ and BD GolgiStop™.
# [3] = Figure 9D, tumour-infiltrating cells, AT-3, individual mice, listed as CMP-182
# [4] = Figure 9E, AT-3, individual mice, listed as CMP-182
# [5] = Figure 9F, tumour-infiltrating cells, AT-3, individual mice, listed as CMP-182
compound,measurement,setting,value
"CC(C)(O)CCOc1ccc2cc(O)c(N3CC(=O)NS3(=O)=O)c(F)c2c1 [Compound 182, 5-(1-Fluoro-3-hydroxy-7-(3-hydroxy-3-methylbutoxy)naphthalen-2-yl)−1,2,5-thiadiazolidin-3-one 1,1-dioxide]",eradication of AT3 tumors in Lck-Cre;Ptpn2fl/fl mice,"[1]; 10 mg/kg i.v., tumors eradicated/total",3/6
same,Tumour weights (mean),"[1]; AT-3 tumours, CMP-182 in LCK-CRE-PTPN2 mice",7
same,Tumour size (mean),"[1]; AT-3 tumours, time point 7",19.03
same,Tumour size (mean),"[1]; AT-3 tumours, time point 10",21.39
same,Tumour size (mean),"[1]; AT-3 tumours, time point 12",20.59
same,Tumour size (mean),"[1]; AT-3 tumours, time point 14",19.84
same,Tumour size (mean),"[1]; AT-3 tumours, time point 16",13.84
same,Tumour size (mean),"[1]; AT-3 tumours, time point 19",12.75
same,Tumour size (mean),"[1]; AT-3 tumours, time point 21",13.01
same,Tumour size (mean),"[1]; AT-3 tumours, time point 23",11.77
same,"Tumour weights, median","[1]; AT-3 tumours, CMP-182 in LCK-CRE-PTPN2 mice, n=6","7.500, n=6"
same,Tumour growth,"[1]; AT-3 tumours, LCK-CRE-PTPN2 mice n=6, day 7 post injection, listed as CMP-182",13.566 (2×) and 20.8844 (2×) and 21.6987 (2×) and 6.7144 (2×) and 16.1674 (2×) and 35.1652 (2×)
same,Tumour growth,"[1]; AT-3 tumours, LCK-CRE-PTPN2 mice n=6, day 10 post injection, listed as CMP-182",12.25 (2×) and 27.03 (2×) and 24 (2×) and 10.5 (2×) and 18.4 (2×) and 36.18 (2×)
same,Tumour growth,"[1]; AT-3 tumours, LCK-CRE-PTPN2 mice n=6, day 12 post injection, listed as CMP-182",9 (2×) and 29.15 (2×) and 22.5 (2×) and 12.6 (2×) and 15.2 (2×) and 35.1 (2×)
same,Tumour growth,"[1]; AT-3 tumours, LCK-CRE-PTPN2 mice n=6, day 14 post injection, listed as CMP-182",9 (2×) and 25.92 (2×) and 22.5 (2×) and 13.32 (2×) and 14.35 (2×) and 33.92 (2×)
same,Tumour growth,"[1]; AT-3 tumours, LCK-CRE-PTPN2 mice n=6, day 16 post injection, listed as CMP-182",0 (4×) and 24.48 (2×) and 22.95 (2×) and 7.5 (2×) and 28.08 (2×)
same,Tumour growth,"[1]; AT-3 tumours, LCK-CRE-PTPN2 mice n=6, day 19 post injection, listed as CMP-182",0 (4×) and 22.55 (2×) and 22.95 (2×) and 4 (2×) and 27 (2×)
same,Tumour growth,"[1]; AT-3 tumours, LCK-CRE-PTPN2 mice n=6, day 21 post injection, listed as CMP-182",0 (4×) and 27.56 (2×) and 22.5 (2×) and 4 (2×) and 24 (2×)
same,Tumour growth,"[1]; AT-3 tumours, LCK-CRE-PTPN2 mice n=6, day 23 post injection, listed as CMP-182",0 (4×) and 25 (2×) and 22.54 (2×) and 1 (2×) and 22.08 (2×)
same,Tumour weights,"[1]; AT-3 tumours, LCK-CRE-PTPN2 mice n=6, individual mice (Figure 8D), listed as CMP-182",0 and 12 and 10 and 5 and 15
same,"recruitment of CD4+ and CD8+ effector/memory T cells, combination therapy",[2]; Compound 182 10 mg/kg i.v. + α-PD-1 200 μg i.p.,synergistic recruitment
same,CD4 EM,[2]; [3],43342.4 and 57673.5 and 79430.7 and 97780.3 and 96326.3 and 45818.5
same,CD8 EM,[2]; [3],103472 and 141360 and 229947 and 172459 and 191087 and 113353
same,GRZMB,[2]; [4],24.8 and 18.9 and 21.2 and 17 and 24 and 19.1
same,PD-1 TIM-3,[2]; [4],32.5 and 47.7 and 47.8 and 31.8 and 39.5 and 41.5
same,IFNg+ TNF+,"[2]; Figure 9E, first IFNg+ TNF+ panel, AT-3, individual mice, listed as CMP-182",7.74 and 4.13 and 7.71 and 10.5 and 16.5 and 3.24
same,IFNg+ TNF+,"[2]; Figure 9E, second IFNg+ TNF+ panel, AT-3, individual mice, listed as CMP-182",19 and 26.4 and 15.4 and 31.9 and 43.5 and 25.3
same,MDSCs,[2]; [5],15172.6 and 12646.1 and 18636.2 and 29520.3 and 27688.9 and 13342.8
same,NK cells,[2]; [5],41998.7 and 24391.4 and 32687 and 55002.2 and 59698.1 and 23635.5
same,Tregs,[2]; [5],32249.8 and 40798.3 and 43823.5 and 55176.6 and 44430.4 and 6773.49
